pIC50: −log10 of the molar value. Numbered stars: 1 amine (or outer) side, 2 acyl side, 3 side chain; on linkers, the order of the positions; unused ones are H or OH. Bridge positions count the residues as written; N and C are the ends. Square brackets hold non-standard residues; d marks the D form. Peptide text beside a SMILES is read from it. I, II: the chains in the order shown. Actinocin(9to1) = Cc1c2oc3c(C)ccc(C(=O)[*:1])c3nc-2c(C(=O)[*:2])c(N)c1=O; NMeV = CN[C@H](C(=O)O)C(C)C; Sar = CNCC(=O)O
Experiments:
[1] = target: T1, Telomerase reverse transcriptase (Homo sapiens, UniProt O14746); experiment: Inhibitory activity against telomerase (Compound released from underivatized resin
T1 sequence (O14746 whole entry): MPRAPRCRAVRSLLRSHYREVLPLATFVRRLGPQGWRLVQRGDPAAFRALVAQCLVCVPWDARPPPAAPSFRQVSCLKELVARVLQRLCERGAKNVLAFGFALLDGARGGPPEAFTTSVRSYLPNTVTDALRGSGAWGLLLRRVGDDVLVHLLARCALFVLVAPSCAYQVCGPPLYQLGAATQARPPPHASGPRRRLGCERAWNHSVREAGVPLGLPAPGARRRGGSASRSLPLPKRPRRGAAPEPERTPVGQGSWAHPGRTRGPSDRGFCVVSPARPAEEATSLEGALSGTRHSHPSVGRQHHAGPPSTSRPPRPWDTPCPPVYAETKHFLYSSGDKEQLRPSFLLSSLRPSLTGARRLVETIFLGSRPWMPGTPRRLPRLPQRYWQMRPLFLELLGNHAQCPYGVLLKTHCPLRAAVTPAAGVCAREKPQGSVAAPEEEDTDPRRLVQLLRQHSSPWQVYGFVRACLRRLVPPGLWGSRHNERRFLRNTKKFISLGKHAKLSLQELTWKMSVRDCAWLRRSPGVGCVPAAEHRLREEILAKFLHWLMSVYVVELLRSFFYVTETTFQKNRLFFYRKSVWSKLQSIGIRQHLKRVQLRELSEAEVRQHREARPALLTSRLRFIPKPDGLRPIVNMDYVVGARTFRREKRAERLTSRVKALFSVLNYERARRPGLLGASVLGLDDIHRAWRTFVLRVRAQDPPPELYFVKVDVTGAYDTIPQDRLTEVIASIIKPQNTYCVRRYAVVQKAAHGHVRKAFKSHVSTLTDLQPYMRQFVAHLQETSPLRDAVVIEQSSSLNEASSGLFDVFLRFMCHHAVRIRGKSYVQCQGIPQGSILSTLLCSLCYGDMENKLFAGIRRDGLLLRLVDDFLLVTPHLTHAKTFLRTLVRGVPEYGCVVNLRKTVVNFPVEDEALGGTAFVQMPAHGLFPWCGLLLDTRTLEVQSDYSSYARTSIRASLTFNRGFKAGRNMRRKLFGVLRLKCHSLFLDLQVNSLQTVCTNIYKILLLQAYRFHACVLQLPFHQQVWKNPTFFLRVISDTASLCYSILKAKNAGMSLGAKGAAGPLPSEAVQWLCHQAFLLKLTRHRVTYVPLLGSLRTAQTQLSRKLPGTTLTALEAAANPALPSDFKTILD

[2] = target: T1, Telomerase reverse transcriptase; experiment: Inhibitory activity against telomerase (Compound released from DNA/DNA heteroduplex derivatized resin [sequence (TTAGGG)3)
[3] = target: T1, Telomerase reverse transcriptase; experiment: Inhibitory activity against telomerase (Compound released from RNA/DNA heteroduplex derivatized resin [sequence (TTAGGG)3)
[4] = target: T1, Telomerase reverse transcriptase; experiment: Inhibitory activity against telomerase at 50 uM concentration (Compound released from DNA/DNA heteroduplex derivatized resin [sequence (TTAGGG)3)
[5] = target: T1, Telomerase reverse transcriptase; experiment: Inhibitory activity against telomerase at 50 uM concentration (Compound released from RNA/DNA heteroduplex derivatized resin [sequence (TTAGGG)3)
[6] = target: T1, Telomerase reverse transcriptase; experiment: Inhibitory activity against telomerase at 50 uM concentration (Compound released from underivatized resin

Compound	pIC50 [1]	pIC50 [2]	pIC50 [3]	inhibition [4] [%]	inhibition [5] [%]	inhibition [6] [%]
COc1cccc2c1C(=O)c1c(O)c3c(c(O)c1C2=O)C[C@@](O)(C(=O)CO)C[C@@H]3O[C@H]1C[C@H](N)[C@H](O)[C@H](C)O1				< 50	< 50	< 50
Cc1c2oc3c(C)c(N)cc(C(=O)N[C@@H]4C(=O)N[C@H](C(C)C)C(=O)N5CCC[C@H]5C(=O)N(C)CC(=O)N(C)[C@@H](C(C)C)C(=O)O[C@@H]4C)c3nc-2c(C(=O)N[C@@H]2C(=O)N[C@H](C(C)C)C(=O)N3CCC[C@H]3C(=O)N(C)CC(=O)N(C)[C@@H](C(C)C)C(=O)O[C@@H]2C)c(N)c1=O				< 50	< 50	< 50
Cc1c2oc3c(C)ccc(C(=O)N[C@@H]4C(=O)N[C@H](C(C)C)C(=O)N5CCC[C@H]5C(=O)N(C)CC(=O)N(C)[C@@H](C(C)C)C(=O)O[C@@H]4C)c3nc-2c(C(=O)N[C@@H]2C(=O)N[C@H](C(C)C)C(=O)N3CCC[C@H]3C(=O)N(C)CC(=O)N(C)[C@@H](C(C)C)C(=O)O[C@@H]2C)c(N)c1=O (I: T[dV]P[Sar][NMeV] / II: T[dV]P[Sar][NMeV]; ester I:1-I:C, II:1-II:C; linker I:N-II:N via Actinocin(9to1))				< 50	< 50	< 50
CC[n+]1c(-c2ccccc2)c2cc(N)ccc2c2ccc(N)cc21 [HOMIDIUM BROMIDE]	5.48	5.48	5.48			

More lines, now with the values ahead:

pIC50 [1]	pIC50 [2]	pIC50 [3]	inhibition [4] [%]	inhibition [5] [%]	inhibition [6] [%]	Compound
4.66	4.66	4.66				Cc1cc2cc3cc(C)c(N)cc3nc2cc1N
			< 50	< 50	< 50	COc1cccc2c1C(=O)c1c(O)c3c(c(O)c1C2=O)C[C@@](O)(C(C)=O)C[C@@H]3O[C@H]1C[C@H](N)[C@H](O)[C@H](C)O1
4.91	4.91	4.91				CN(C)c1ccc2cc3ccc(N(C)C)cc3nc2c1 [ACRIDINE ORANGE]
5.09	5.09	5.09				CCOc1ccc2nc3cc(N)ccc3c(N)c2c1 [ETHACRIDINE]
